From patent US8173133B2, “Acyl pseudodipeptides which carry a functionalized auxiliary arm” (OM Pharma, priority 1999, dated 2012) come the findings set out here.

In experiment [1] the test system is predendritic cells (DC-6). In words: dendritic cell differentiation test: FITC-Dextran take-up. It is filed as cell-based, human. The conditions noted are these: 10 μg/ml. As for the experimental part:
The ability of products of the invention to induce maturation of predendritic cells into dendritic cells was assessed. The following parameters were measured: FITC-Dextran conjugate take-up and expression of CD83, CD86 surface markers.
Mononucleated cells of peripheral blood are isolated from buffy coats of healthy donors. Purified monocytes by adherence selection are resuspended in RPMI-1640 medium containing 10% of foetal calf serum (FCS), GM-CSF and IL-4 (10 ng/ml) at a density of 1×10^6 cells/ml. Cells are divided into Petri Dishes (10×10^6 cells per dish) and cultured for 6 days with a change to fresh medium after 3 days. Cells thus obtained are called predendritic cells (DC-6). Maturation of predendritic cells into mature dendritic cells is achieved by incubating cells with diluted solutions of the products or LPS (positive control) for 3 more days (see product section below). At day 9 (DC-9), cells are harvested and analyzed for different indicators of dendritic cell maturation: assessment of CD83, CD86 surface marker expression as well as of their ability to take up FITC-Dextran conjugate. All these parameters are analyzed by an EPICS-XL-MCL model FACS (Coulter Immunology, Hialeah, […]).
Expression of surface markers is given as % of mean fluorescence of LPS-activated cells (positive control); FITC-Dextran conjugate take-up rate is calculated based on take-up of cells maintained in basic medium and is expressed in %.
Solutions are incubated at 37° C. for 20 minutes, subjected to vigorous stirring during 3 minutes and then diluted to 100 μg/ml in RPMI-1640 culture medium and used in diluted state at concentrations ranging from 10 μg/ml to 0.03 μg/ml. Reference Product: E. coli lipopolysaccharide (LPS, DIFCO, Detroit, Mich., U.S.A.), as a 5 mg/ml stock solution in PBS. An intermediate 100 μg/ml solution is prepared in RPMI 1640 culture medium. Concentrations of dilute solutions being tested range from 1 μg/ml to 0.03 μg/ml.
In another series of experiments, all acyl dipeptide-like compounds were freeze-dried and directly redissolved into pyrogen-free water. Different products as well as LPS control are tested at a concentration of 10 μg/ml. Results are given as % of dendritic cells and mean fluorescence value for dextran phagocytosis or CD86 surface marker expression.
Immature dendritic cells (DC-6) resulting from monocyte differentiation, through the joint action of GM-CSF and IL-4, are able to incorporate FITC-Dextran conjugate. During the maturation process, cells lose their ability to incorporate the FITC-Dextran conjugate. Assays are conducted upon reaching the DC-9 differentiation stage.

Another experiment deals with bone marrow stem cells. In words: bone marrow stem cell proliferation (XTT). Type of experiment: cell-based, C57/BL6 mice. The source says: 6-week old male C57/BL6 mice are killed by CO2 inhalation. The hip, femur, tibia and hind leg bones are removed. The marrow is extracted from the bone lumen by injecting Dulbecco's Modified Eagle Medium (DH medium) from the end portions which had been excised. The stem cells are washed and suspended again in DH medium supplemented with 20% foetal calf serum (FCS) The cell concentration is adjusted to 500000 cells/ml.
Products previously dissolved in DH medium supplemented with 20% FCS, amino acids and antibiotics are serially diluted directly into a microtiter plate. The products are tested in triplicate and each microtiter plate includes a negative control containing plain medium. The final volume in each well is 100 μl.
100 μl of the cell suspension are added to diluted solutions of products and the cells are incubated for 7 days in an incubator at 37° C., under 8% CO2 and a moisture saturated atmosphere. Cell proliferation is determined by measuring the […] of a chromogenic substrate XTT (2,3-bis[2-methoxy-4-nitro-5-sulphophenyl]-2H-tetrazolium-5-carboxanilide) in mitochondria of viable cells.
At the end of the incubation period, 50 μl of the XTT substrate solution (1 mg/ml XTT+0.008 mg/ml phenazine methosulfate) are added to each well. After an 8 hour incubation period at 37° C. under 8% CO2 in a moisture saturated incubator, the microtiter plates are read with a spectrophotometer at 492 nm against a reference sample at 690 nm.
Results are expressed as mean value±standard deviation and plotted as a dose versus response curve. Values for a negative control composed of DH medium (mean±standard deviation) are also graphically shown.
From this dose versus response curve, 3 curve variables are computed:
Max: maximum curve amplitude and corresponding concentration
EC50: concentration corresponding to 50% of maximum amplitude
Min: lowest concentration inducing a significant proliferation corresponding to the blank±3× standard deviation value
Concentration values corresponding to EC50 and Min are determined from line segments joining different points on the curve.
If the curve has no plateau phase but an ascending configuration for the highest concentration being tested, a “>” sign is shown before Max and EC50 values.

Values after ≈ are worked out from the molar mass of the structure shown.

For `CCCCCCCCCCCC(=O)O[C@H](CCCCCCCCCCC)CC(=O)N[C@H](CC(=O)O)C(=O)NCCC[C@H](COC(=O)CCC(=O)O)NC(=O)C[C@H](O)CCCCCCCCCCC` [OM-197-MC-Succ], in experiment [1] (products redissolved in pyrogen-free water, % of dendritic cells), the “Dextran % CD” value is 35.5%. In experiment [1] (mean fluorescence value), the “Dextran Fluorescence” value came out at 3.0. In addition, the Max amplitude with bone marrow stem cells (7 days, XTT 492 nm) is reported as 2.16 O.D. In addition, the Min amplitude in the experiment on bone marrow stem cells (blank ± 3× standard deviation) stood at 0.80 O.D. Further, the Max concentration with bone marrow stem cells (concentration at maximum amplitude) amounted to 50 µg/mL. This compound also gave an EC50 conc in the experiment with bone marrow stem cells (concentration corresponding to 50% of maximum amplitude) of 24.7 µg/mL (≈ 25.5 µM). The compound further showed a Min concentration in the experiment on bone marrow stem cells (lowest concentration inducing a significant proliferation) of 2.95 µg/mL.
